From patent US20210220374A1, “METHODS OF TREATING TE[…]” (Clarus Therapeutics, Inc., priority 2013, published 2021)

Experiments:
Type in all cases: in vivo, hypogonadal men
[1] = Optimal sampling time: pooled steady-state serum T data of LOT-AA and LOT-BB, 200 mg T BID as TU
Description: An investigation was conducted to identify a single optimal sampling time for monitoring the responsiveness of hypogonadal male patients subjects to chronic BID dosing of T using a SEDDS formulation of TU. Concentration data and derived pharmacokinetic parameters for 41 subjects from two studies (LOT-AA and LOT-BB) where subjects received 200 mg BID of T, as TU, for at least seven days were used in this investigation. Correlation and contingency table approaches were used in the investigation.
Concentration data and pharmacokinetic parameters from hypogonadal male subjects that participated in study LOT-AA and study LOT-BB were combined into a single data set. From study LOT-AA, only the information from Day 7 of Treatment 3 (8 days of treatment with 200 mg BID of T, as TU) was used. Study LOT-AA contributed data from 26 subjects treated for 7 days, and study LOT-BBBB contributed data from 15 subjects treated for 28 days with 200 mg BID of T, as TU. Combining of the data from these two groups of subjects is supported by the finding from study LOT-BBBB that T steady-state is reached in 5-7 days.
The sample collection times for these two studies both spanned a 12-hour window, but not all sample collection times were common to both studies. LOT-AA used sample collection times of 0, 1, 2, 4, 8 and 12 hours; LOT-BBBB used sample collection times of 0, 1.5, 3, 4, 5, 6, 8 and 12 hours. The current analysis used the superset of the combined set of collection times (0, 1, 1.5, 2, 3, 4, 5, 6, 8 and 12 hours). Concentration values that were missing for a subject in either of the data sets at a particular sample collection time were estimated by linear interpolation, using the existing nearest neighbor concentration values for that subject, i.e., interpolation of missing data was subject-specific.

[2] = Example 3 four-week study of Formulation B (LOT-BB)
Description: The study was designed as an open-label, repeat dose, pharmacokinetic study.
For each subject, the “Day 28” serial PK sampling day was scheduled for Day 32 of the study. […] Doses were administered as capsules, with subjects instructed to take doses 30 minutes after initiation of meals (breakfast and dinner).

[3] = Example 1 single-day pharmacokinetic study of Formulation B; conditions: 200 mg T equivalents BID with food
Description: The study was designed as an open-label, single-day dosing, sequential, cross-over, pharmacokinetic study.
The doses were administered as capsules to subjects five minutes after a meal (breakfast for QD, and breakfast and dinner for BID).

[4] = targeted Cavg 300-1000, 41 subjects

CCCCCCCCCCC(=O)O[C@H]1CC[C@H]2[C@@H]3CCC4=CC(=O)CC[C@]4(C)[C@H]3CC[C@]12C [TU, testosterone undecanoate]
C(3), Min ([1]; serum T, N 41): 160 ng/dL | C(4), Max ([1]; serum T, N 41): 1770 ng/dL | C(4), Mean ([1]; serum T, N 41): 745 ng/dL | C(4), Median ([1]; serum T, N 41): 720 ng/dL | C(4), Min ([1]; serum T, N 41): 127 ng/dL | C(5), Max ([1]; serum T, N 41): 1690 ng/dL | C(5), Mean ([1]; serum T, N 41): 708 ng/dL | C(5), Median ([1]; serum T, N 41): 686 ng/dL | C(5), Min ([1]; serum T, N 41): 125 ng/dL | C(6), Max ([1]; serum T, N 41): 1660 ng/dL | C(6), Mean ([1]; serum T, N 41): 673 ng/dL | C(6), Median ([1]; serum T, N 41): 606 ng/dL | C(6), Min ([1]; serum T, N 41): 216 ng/dL | C(8), Max ([1]; serum T, N 41): 1910 ng/dL | C(8), Mean ([1]; serum T, N 41): 537 ng/dL | C(8), Median ([1]; serum T, N 41): 367 ng/dL | C(8), Min ([1]; serum T, N 41): 225 ng/dL | C(12), Max ([1]; serum T, N 41): 757 ng/dL | C(12), Mean ([1]; serum T, N 41): 278 ng/dL | C(12), Median ([1]; serum T, N 41): 222 ng/dL | C(12), Min ([1]; serum T, N 41): 84.2 ng/dL | Cavg, Max ([1]; serum T, N 41): 1057 ng/dL | Cavg, Mean ([1]; serum T, N 41): 517 ng/dL | Cavg, Median ([1]; serum T, N 41): 454 ng/dL | Cavg, Min ([1]; serum T, N 41): 192 ng/dL | Cmax, Max ([1]; serum T, N 41): 1910 ng/dL | Cmax, Mean ([1]; serum T, N 41): 970 ng/dL | Cmax, Median ([1]; serum T, N 41): 951 ng/dL | Cmax, Min ([1]; serum T, N 41): 249 ng/dL | Number of subjects, Cavg in range [1, 4]: 33 | Number of subjects, Cavg too high [1, 4]: 3 | Number of subjects, Cavg too low [1, 4]: 5 | Time to T steady-state ([2]; 200 mg T BID as TU): 5 to 7 days | Subjects with Cmax greater than 1500 ng/dL ([2]; 200 mg T BID as TU, 28 days): 13.3% | Subjects with serum T Cavg within the normal range ([2]; 200 mg T BID as TU, 28 days, no dose adjustment): 86.7% | Endogenous serum T baseline concentration, mean ([2]; after 28 days of treatment): 108 ng/dL | Time for DHT concentrations to return to pretreatment levels ([2]; after discontinuing treatment): ≤ 36 h | Time for E2 concentrations to return to pretreatment levels ([2]; after discontinuing treatment): ≤ 36 h | Continued treatment required for maximal suppression of endogenous T production ([2]; in vivo): 5 to 7 days | E2 mean Cavg ([2]; steady state): 0.022 ng/mL | E2 mean Cmin ([2]; steady state): 0.0155 ng/mL | Subjects achieving a serum T Cavg above 300 ng/dL [3]: 75%
